Results reported in US20070128217A1 (priority 2003, published 2007).

Assays:
[1] = tested on: control sera (pooled serum of ten healthy LUMC hospital workers; commercial negative donor pooled serum from the Dutch bloodbank); assay type: binding, human; design: Binding of Control serum LUMC to linear peptides / Binding of Control serum Blood-bank to linear peptides / Binding of Control serum LUMC to looped peptides / Binding of Control Serum Blood-Bank to Looped peptides / Binding of Control serum LUMC to linear peptides of the protein M of SARS-CoV Urbani / Binding of Control serum Blood-bank to linear peptides of the protein M of SARS-CoV Urbani / Binding of Control serum LUMC to looped peptides of the protein M of SARS-CoV Urbani / Binding of Control Serum Blood-Bank to Looped peptides of the protein M of SARS-CoV Urbani: unit not given here
[2] = tested on: antibodies in sera from SARS patients (sera 1a, 1b, 2, 6, 37, 62, London, SARS-yellow, SARS-green); assay type: binding, human; design: Binding of serum 6 to linear peptides of protein X1 of SARS-CoV Urbani / Binding of serum 37 to linear peptides of protein X1 of SARS-CoV Urbani / Binding of serum 6 to looped/cyclic peptide (PEPSCAN-ELISA) / Binding of serum 37 to looped/cyclic peptide (PEPSCAN-ELISA) / Binding of serum 37 to looped/cyclic peptides of protein X1 of SARS-CoV Urbani / Binding of serum 6 to linear peptides of protein X2 / Binding of serum 37 to linear peptides of protein X2 / Binding of serum 37 to looped/cyclic peptides of protein X2 of SARS-CoV Urbani / Binding of serum 6 to linear peptides of protein M of SARS-CoV Urbani / Binding of serum 37 to linear peptides of protein M of SARS-CoV Urbani / Binding of serum 6 to looped/cyclic peptides of protein M of SARS-CoV Urbani / Binding of serum 37 to looped/cyclic peptides of protein M of SARS-CoV Urbani / Binding of serum 6 to linear peptides of protein X3 of SARS-CoV Urbani / Binding of serum 37 to linear peptides of protein X3 of SARS-CoV Urbani / Binding of serum 37 to looped/cyclic peptides of protein X3 of SARS-CoV Urbani / Binding of serum 6 to linear peptides of protein X4 of SARS-CoV Urbani / Binding of serum 37 to linear peptides of protein X4 of SARS-CoV Urbani / Binding of serum 37 to looped/cyclic peptides of protein X4 of SARS-CoV Urbani / Binding of serum 6 to linear peptides of protein X5 of SARS-CoV Urbani / Binding of serum 37 to linear peptides of protein X5 of SARS-CoV Urbani / Binding of serum 37 to looped/cyclic peptides of protein X5 of SARS-CoV Urbani / Binding of serum 6 to linear peptides of protein N of SARS-CoV Urbani / Binding of serum 37 to linear peptides of protein N of SARS-CoV Urbani / Binding of serum 6 to linear peptide (PEPSCAN-ELISA) / Binding of serum 1a to looped/cyclic peptides of protein N of SARS-CoV Urbani / Binding of serum 1b to looped/cyclic peptides of protein N of SARS-CoV Urbani / Binding of serum 2 to looped/cyclic peptides of protein N of SARS-CoV Urbani / Binding of serum 6 to looped/cyclic peptides of protein N of SARS-CoV Urbani / Binding of serum 37 to looped/cyclic peptides of protein N of SARS-CoV Urbani / Binding of serum 62 to looped/cyclic peptides of protein N of SARS-CoV Urbani / Binding of serum London to looped/cyclic peptides of protein N of SARS-CoV Urbani / Binding of serum SARS-green to looped/cyclic peptides of protein N of SARS-CoV Urbani: unit not given here
[3] = tested on: rabbit serum obtained by immunizing a rabbit with the SARS-CoV strain Frankfurt 1; assay type: binding; design: Binding of a rabbit serum to linear peptides / Binding of a rabbit serum to looped peptides / Rabbit serum linear peptides / Rabbit serum looped peptides / Binding of a rabbit serum to linear peptides of protein N of SARS-CoV Urbani (Rabbit serum linear peptides) / Binding of a rabbit serum to looped/cyclic peptides of protein N of SARS-CoV Urbani (Rabbit serum looped peptides): unit not given here

## QWIQFMMSRRRLLAC
[1]
  Binding of Control Serum Blood-Bank to Looped peptides: 0.3
  Binding of Control serum Blood-bank to linear peptides: 0.8
  Binding of Control serum LUMC to linear peptides: 0.5
  Binding of Control serum LUMC to looped peptides: 0.4
[2]
  Binding of serum 1a to linear peptides of protein X2: 0.7
  Binding of serum 1a to looped/cyclic peptides of protein X2 of SARS-CoV Urbani: 0.5
  Binding of serum 1b to linear peptides of protein X2: 0.5
  Binding of serum 1b to looped/cyclic peptides of protein X2 of SARS-CoV Urbani: 0.4
  Binding of serum 2 to linear peptides of protein X2: 0.5
  Binding of serum 2 to looped/cyclic peptides of protein X2 of SARS-CoV Urbani: 0.3
  Binding of serum 6 to linear peptides of protein X2: 0.7
  Binding of serum 6 to looped/cyclic peptides of protein X2 of SARS-CoV Urbani: 0.3
  Binding of serum 37 to linear peptides of protein X2: 0.6
  Binding of serum 37 to looped/cyclic peptides of protein X2 of SARS-CoV Urbani: 0.5
  Binding of serum 62 to linear peptides of protein X2: 0.6
  Binding of serum 62 to looped/cyclic peptides of protein X2 of SARS-CoV Urbani: 0.5
  Binding of serum London to linear peptides of protein X2: 0.5
  Binding of serum London to looped/cyclic peptides of protein X2 of SARS-CoV Urbani: 0.2
  Binding of serum SARS-green to linear peptides of protein X2: 0.5
  Binding of serum SARS-green to looped/cyclic peptides of protein X2 of SARS-CoV Urbani: 0.4
  Binding of serum SARS-yellow to linear peptides of protein X2: 0.6
  Binding of serum SARS-yellow to looped/cyclic peptides of protein X2 of SARS-CoV Urbani: 0.4
[3]
  Binding of a rabbit serum to linear peptides: 1.0
  Binding of a rabbit serum to looped peptides: 2.0

## QWNLVIGFLFLAWIM
[1]
  Binding of Control Serum Blood-Bank to Looped peptides of the protein M of SARS-CoV Urbani: 0.6
  Binding of Control serum Blood-bank to linear peptides of the protein M of SARS-CoV Urbani: 0.7
  Binding of Control serum LUMC to linear peptides of the protein M of SARS-CoV Urbani: 0.3
  Binding of Control serum LUMC to looped peptides of the protein M of SARS-CoV Urbani: 0.6
[2]
  Binding of serum 1a to linear peptides of protein M of SARS-CoV Urbani: 0.7
  Binding of serum 1a to looped/cyclic peptides of protein M of SARS-CoV Urbani: 0.7
  Binding of serum 1b to linear peptides of protein M of SARS-CoV Urbani: 0.4
  Binding of serum 1b to looped/cyclic peptides of protein M of SARS-CoV Urbani: 0.6
  Binding of serum 2 to linear peptides of protein M of SARS-CoV Urbani: 0.6
  Binding of serum 2 to looped/cyclic peptides of protein M of SARS-CoV Urbani: 0.6
  Binding of serum 6 to linear peptides of protein M of SARS-CoV Urbani: 0.4
  Binding of serum 6 to looped/cyclic peptides of protein M of SARS-CoV Urbani: 0.6
  Binding of serum 37 to linear peptides of protein M of SARS-CoV Urbani: 0.7
  Binding of serum 37 to looped/cyclic peptides of protein M of SARS-CoV Urbani: 0.5
  Binding of serum 62 to linear peptides of protein M of SARS-CoV Urbani: 0.8
  Binding of serum 62 to looped/cyclic peptides of protein M of SARS-CoV Urbani: 0.7
  Binding of serum London to linear peptides of protein M of SARS-CoV Urbani: 0.3
  Binding of serum London to looped/cyclic peptides of protein M of SARS-CoV Urbani: 0.2
  Binding of serum SARS-green to linear peptides of protein M of SARS-CoV Urbani: 0.2
  Binding of serum SARS-green to looped/cyclic peptides of protein M of SARS-CoV Urbani: 0.3
  Binding of serum SARS-yellow to linear peptides of protein M of SARS-CoV Urbani: 0.1
  Binding of serum SARS-yellow to looped/cyclic peptides of protein M of SARS-CoV Urbani: 0.8
[3]
  Rabbit serum linear peptides: 0.3
  Rabbit serum looped peptides: 0.3

## RFLYIIKLVFLWLLW
[1]
  Binding of Control Serum Blood-Bank to Looped peptides of the protein M of SARS-CoV Urbani: 0.7
  Binding of Control serum Blood-bank to linear peptides of the protein M of SARS-CoV Urbani: 0.7
  Binding of Control serum LUMC to linear peptides of the protein M of SARS-CoV Urbani: 0.8
  Binding of Control serum LUMC to looped peptides of the protein M of SARS-CoV Urbani: 0.8
[2]
  Binding of serum 1a to linear peptides of protein M of SARS-CoV Urbani: 0.7
  Binding of serum 1b to linear peptides of protein M of SARS-CoV Urbani: 0.7
  Binding of serum 2 to linear peptides of protein M of SARS-CoV Urbani: 0.6
  Binding of serum 6 to linear peptides of protein M of SARS-CoV Urbani: 0.8
  Binding of serum 37 to linear peptides of protein M of SARS-CoV Urbani: 0.4
  Binding of serum 62 to linear peptides of protein M of SARS-CoV Urbani: 0.4
  Binding of serum London to linear peptides of protein M of SARS-CoV Urbani: 0.6
  Binding of serum SARS-green to linear peptides of protein M of SARS-CoV Urbani: 0.6
  Binding of serum SARS-yellow to linear peptides of protein M of SARS-CoV Urbani: 0.3
  Recognition of the peptide by sera of SARS-CoV infected individuals, and form (linear, looped/cyclic) in which it is recognized: recognized in looped/cyclic form
[3]
  Rabbit serum linear peptides: 0.2
  Rabbit serum looped peptides: 0.3
